Format in all cases: cell-based
One assay has as its system COR-L105. In words: CellTiter-Glo proliferation assay, COR-L105. Particulars: Homo sapiens, COR-L105, 120 h, COR-L105, 5 days; for Emax: read-out: COR-L105 Span (max). The procedure: (§1) The BCL-xL degrader compounds were tested against two endogenous cancer cell lines: • COR-L105: ECACC No. 92031918 cultured in RPMI-1640+10% FBS • NCI-H1650: (ATCC No. CRL-5883 cultured in RPMI-1640+10% FBS
(§2) The ability of the BCL-xL degrader low molecular weight compounds to inhibit cell proliferation and survival was assessed using the Promega CellTiter-Glo® proliferation assay.
(§3) Cell lines were cultured in media that is optimal for their growth at 5% CO2, 37° C. in a tissue culture incubator. Prior to seeding for the proliferation assay, the cells were split at least 2 days before the assay to ensure optimal growth density. On the day of seeding, adherent cells were lifted off tissue culture flasks using 0.25% trypsin. Cell viability and cell density were determined using a cell counter (Vi-Cell XR Cell Viability Analyzer, Beckman Coulter). Cells with higher than 85% viability were seeded for the assay.
(§4) The COR-105 cell line was seeded in white, clear bottom 384-well TC treated plates (Corning cat. #3765). Cells were seeded at a density of 1,000 cells per well in 45 μL of standard growth media. Plates were incubated at 5% CO2, 37° C. overnight in a tissue culture incubator. The NCI-H1650 cell line was seeded in black, clear round bottom 384-well ultra-low attachment spheroid microplates (Corning cat. #3830). Cells were seeded at a density of 3,000 cells per well in 45 uL of standard growth media. Plates were spun in a centrifuge for 5 minutes and 1,000 RPM. Plates were incubated at 5% CO2, 37° C. for 72 hours in a tissue culture incubator.
(§5) On the day of dosing, BCL-xL degrader low molecular weight compounds were prepared at 1 OX in standard growth media. The prepared drug treatments were then added to the cells resulting in final concentrations of 0.508 nM-10 μM and a final volume of 50 μL per well. Each drug concentration was tested in quadruplets. Plates were incubated at 5% CO2, 37° C. for 5 days in a tissue culture incubator.
(§6) For COR-L105 plates, cell viability was assessed through the addition of 25 μL of CellTiter Glo® (Promega, cat #G7573), a reagent which lyses cells and measures total adenosine triphosphate (ATP) content. Plates were incubated at room temperature for 10 minutes to stabilize luminescent signals prior to reading with a luminescence reader (EnVision Multilabel Plate Reader, PerkinElmer). For NCI-H1650 plates, cell viability was assessed through the addition of 40 μL of CellTiter Glo® 3D Cell Viability Assay substrate (Promega, cat #G9681), a reagent which lyses cells and measures total adenosine triphosphate (ATP) content. Wells were mixed thoroughly and plates were incubated at room temperature for 30 minutes to stabilize luminescent signals prior to reading using a luminescence reader (EnVision Multilabel Plate Reader, PerkinElmer).
(§7) To evaluate the effect of the drug treatments, luminescent counts from wells containing untreated cells (100% viability) were used to normalize treated samples. A variable slope model was applied to fit a nonlinear regression curve to the data in GraphPad PRISM version 7.02 software. IC50 and Amax values were extrapolated from the resultant curves. The concentrations of treatment required to inhibit 50% of cell growth or survival (IC50) were calculated with representative IC50 values of the cell lines tested summarized in Table 11.
(In general: In ATP-based viability assays light output follows the ATP content of the culture.)

The next assay concerns NCI-H1650. In words: CellTiter-Glo 3D proliferation assay, NCI-H1650 spheroids. Particulars: Homo sapiens, NCI-H1650, 120 h, 5 days; for Emax: read-out: NCI-H1650 Span (Amax). As to the method:
as §1, §2, §3, §4, §5, §6, §7

For a further assay, the target named is T1, endogenous BCL-xL (Homo sapiens, UniProt Q07817).
T1 construct: endogenous in cells; host or cells: COR-L105 (ECACC No. 92031918); NCI-H1650 (ATCC No. CRL-5883)
T1 sequence (Q07817 whole entry): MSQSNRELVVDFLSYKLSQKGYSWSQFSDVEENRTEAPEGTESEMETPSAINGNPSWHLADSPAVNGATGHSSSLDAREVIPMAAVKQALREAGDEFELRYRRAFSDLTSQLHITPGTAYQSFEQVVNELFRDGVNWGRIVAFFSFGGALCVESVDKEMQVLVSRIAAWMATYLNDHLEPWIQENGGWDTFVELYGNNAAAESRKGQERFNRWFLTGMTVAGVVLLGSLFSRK
In words: Degradation of endogenous BCL-xL in COR-L105 (ProteinSimple Jess). Particulars: COR-L105, 24 h, COR-L105, dose 300 nM, read-out: % BCL-xL vs. Untreated, COR-L105. As to the method: The BCL-xL degrader low molecular weight compounds were tested against two endogenous cancer cell lines: • COR-L105: ECACC No. 92031918 cultured in RPMI-1640+10% FBS • NCI-H1650: (ATCC No. CRL-5883 cultured in RPMI-1640+10% FBS
The ability of the BCL-xL degrader low molecular weight compounds to degrade endogenous BCL-xL was assessed using the ProteinSimple 2-40 kDa Jess Separation Module.
Cell lines were cultured in media that is optimal for their growth at 5% CO2, 37° C. in a tissue culture incubator. Prior to seeding for the degradation assay, the cells were split at least 2 days before the assay to ensure optimal growth density. On the day of seeding, adherent cells were lifted off tissue culture flasks using 0.25% trypsin. Cell viability and cell density were determined using a cell counter (Vi-Cell XR Cell Viability Analyzer, Beckman Coulter). Cells with higher than 85% viability were seeded for the assay.
The COR-L105 and the NCI-H1650 cell line were seeded in 6-well clear TC-treated multiple well plates (Costar® cat. #3516). Cells were seeded at a density of 2,000,000 cells per well in 2.5 mL of standard growth media. Plates were incubated at 5% CO2, 37° C. overnight in a tissue culture incubator. On the day of dosing, BCL-xL degrader low molecular weight compounds and a BCL-xL inhibitor control were prepared at 6× in standard growth media. The prepared drug treatments were then added to the cells resulting in a final concentration of 100-300 nM and a final volume of 3.0 mL per well. A control well of untreated cells was also included in the study. Each drug concentration was tested in singlet. Plates were incubated at 5% CO2, 37° C. for 24 hours in a tissue culture incubator.
After 24 hours, the adherent cells were lifted off tissue culture plates using 0.25% trypsin. Standard growth media was added to quench the trypsin and centrifuged for 5 minutes at 1500 rpm. Cell pellets were washed once with cold PBS and centrifuged for 5 minutes at 1500 rpm. Cells were then washed with 1 mL cold PBS and transferred to a 1.5 mL eppendorf tube. Cells were centrifuged for 10 minutes at ≥10,000 g at 4° C. in a benchtop mini-centrifuge. The entire supernatant was discarded and cells were resuspended thoroughly in 50 μL of RIPA lysis buffer, generated by the manufacturer's protocol (ProteinSimple, Cat. #CBS401: Lysis Kit—RIPA Buffer for Charge Assays). Lysates were incubated on ice for 30 minutes. Following incubation, lysates were spun in a benchtop mini-centrifuge for 15 minutes at full speed at 4° C. Supernatant was carefully transferred to a new eppendorf tube for downstream analysis.
Protein was quantified using a Pierce™ BCA Protein Assay Kit (ThermoFisher, cat #23225) following the manufacturer's instructions. A standard curve was prepared by adding 25 μL of each concentration of reference samples from a Pierce™ Bovine Serum Albumin Standard Pre-Diluted Set (ThermoFisher, cat #23208). Each reference sample was run in duplicate. Testing samples were prepared by diluting cell lysates 1:5 in UltraPure™ DNase/RNase-Free Distilled Water and tested in duplicates of 25 μL each. The BCA working reagent was prepared by addition of 50 parts of BCA Reagent A with 1 part of BCA Reagent B. For each testing well, 200 μL of BCA working reagent was added. The plate was incubated at 37° C. for 30 minutes. A SpectraMax M Series Multi-Mode Microplate Reader was used to measure the absorbance at 562 nm. A standard curve generated by the Pierce™ Bovine Serum Albumin Standard Pre-Diluted Set was used to normalize and calculate the BCA concentration of cell lysates. Only values that fell within the range of the standard curve were accepted for quantification.
The ProteinSimple 2-40 kDa Jess Separation Module was used to detect BCL-xL degradation in treated versus untreated lysates following the manufacturer's instructions (25-Capillary Cartridge, 8 pack, 2-40 kDa, cat #SM W012). […]

Assay [1] deals with MOLT-4 cells. The assay is described as follows: MOLT-4 cell viability, MTT assay. Particulars: Homo sapiens, MOLT-4, 48 h. In short, it runs like this:
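MOLT-4 cells in RPMI 1640 with 10% FBS were exposed to compounds for 48 h at 9 concentrations (3.16-fold dilutions, triplicates). After 4 h with MTT and overnight SDS/HCl solubilisation, absorbance was read at 540 nm. IC50 came from four-parameter fits versus control, as the mean of ≥2 independent experiments.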

Assay [2] deals with MOLT-4 cells. In words: MOLT-4 cell viability, CTG assay. Particulars: MOLT-4, 48 h. In short, it runs like this:
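Viability read as total ATP luminescence (CTG) after 48 h compound treatment, 11 points at 5-fold spacing in triplicate, cells in RPMI 1640/10% FBS. IC50 is the concentration halving signal relative to control, four-parameter fit, averaged over at least 2 experiments.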

A further assay has as its target T2, Bcl-xL (Homo sapiens, UniProt Q07817).
T2 construct: Measured levels of Bcl-xL protein of HCT116 cells treated with the tested compounds; host or cells: HCT116
The assay is described as follows: HCT116 Bcl-xL degradation, capillary-based immunoassay (WES). In outline: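 Bcl-xL protein level by capillary WES immunoassay in HCT116 lysates, as % of untreated after cofilin normalization. Compound exposure was 24 h at 10 and 100 nM and/or a 9-point series, in quadruplicate. Four-parameter fitting gave the DC50.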

Experimental findings from patent publication US20240376094A2, “SELECTIVE BCL-XL PROTAC COMPOUNDS AND METHODS OF USE” (Les Laboratoires Servier, priority 2021, published 2024) are described below.

T2 sequence (Q07817 whole entry): as above

Turning to `Cc1ncsc1-c1ccc(CNC(=O)[C@@H]2C[C@@H](O)CN2C(=O)[C@@H](NC(=O)C2(F)CC2)C(C)(C)C)c(OCC(=O)N(C)CCCCCN2CCN(CC#Cc3ccc(OCCCc4sc(N5CCCc6c5nnc(Nc5nc7ccccc7s5)c6C)nc4C(=O)O)c(F)c3)CC2)c1` [Example 54, 2-(3-(benzo[d]thiazol-2-ylamino)-4-methyl-6,7-dihydropyrido [2,3-c]pyridazin-8(5H)-yl)-5-(3-(2-fluoro-4-(3-(4-(5-(2-(2-(((2S,4R)-1-((S)-2-(1-fluorocyclopropane-1-carboxamido)-3,3-dimethylbutanoyl)-4-hydroxypyrrolidine-2-carboxamido)methyl)-5-(4-methylthiazol-5-yl)phenoxy)-N-methylacetamido)pentyl)piperazin-1-yl)prop-1-yn-1-yl)phenoxy)propyl)thiazole-4-carboxylic acid], the results for the IC50 in the assay on COR-L105 and with NCI-H1650 were 31.6 nM and 5.75 nM, respectively. Also, the results for the Emax in the assay with COR-L105 and with NCI-H1650 were 91.9% and 76.7%, respectively. The remaining activity at 0.3 µM at endogenous BCL-xL was 47.9%.
As for `Cc1c(Nc2nc3ccccc3s2)nnc2c1CCCN2c1nc(C(=O)O)c(CCCOc2ccc(C#CCN3CCN(C(=O)CCCC(=O)NCCOCCNC(=O)COc4cccc5c4C(=O)N(C4CCC(=O)NC4=O)C5=O)CC3)cc2F)s1` (stereo not drawn) [Example 26, 2-[3-(1,3-benzothiazol-2-ylamino)-4-methyl-6,7-dihydro-5H-pyrido[2,3-c]pyridazin-8-yl]-5-[3-[4-[3-[4-[5-[2-[2-[[2-[2-(2,6-dioxo-3-piperidyl)-1,3-dioxo-isoindolin-4-yl]oxyacetyl]amino]ethoxy]ethylamino]-5-oxo-pentanoyl]piperazin-1-yl]prop-1-ynyl]-2-fluoro-phenoxy]propyl]thiazole-4-carboxylic acid], the IC50 in the assay on COR-L105 was 212 nM; in the assay with NCI-H1650, 56.9 nM; in the assay with MOLT-4 cells [1] it was 20.9 nM; with MOLT-4 cells [2], 26 nM. In addition, the Emax in the assay with COR-L105 was 88%; in the assay with NCI-H1650 it was 70.1%. Moreover, at Bcl-xL (HCT116, 24 h, 9-point serial dilution), the DC50 was greater than 316 nM. The compound also displayed a remaining activity at 0.01 µM on Bcl-xL (HCT-116, HCT116, 10 nM, 24 h, % of untreated cells) of 63%. For the same compound, the remaining activity at 0.1 µM on Bcl-xL (HCT-116, HCT116, 100 nM, 24 h, % of untreated cells) turned out to be 51%.
For the compound `Cc1ncsc1-c1ccc(CNC(=O)[C@@H]2C[C@@H](O)CN2C(=O)[C@@H](NC(=O)C2(F)CC2)C(C)(C)C)c(OCC(=O)NCCCCC(=O)N2CCN(CC#Cc3ccc(OCCCc4sc(N5CCCc6c5nnc(Nc5nc7ccccc7s5)c6C)nc4C(=O)O)c(F)c3)CC2)c1` [Example 44, 2-(3-(benzo[d]thiazol-2-ylamino)-4-methyl-6,7-dihydropyrido [2,3-c]pyridazin-8(5H)-yl)-5-(3-(2-fluoro-4-(3-(4-(5-(2-(2-(((2S,4R)-1-((S)-2-(1-fluorocyclopropane-1-carboxamido)-3,3-dimethylbutanoyl)-4-hydroxypyrrolidine-2-carboxamido)methyl)-5-(4-methylthiazol-5-yl)phenoxy)acetamido)pentanoyl)piperazin-1-yl)prop-1-yn-1-yl)phenoxy)propyl)thiazole-4-carboxylic acid], the remaining activity at 0.3 µM at endogenous BCL-xL stood at 58.3%.

By IC50 is commonly meant the concentration that inhibits the measured activity by half. The DC50 is the midpoint of the concentration-degradation curve.
